We go through 14 compounds from ChEMBL document CHEMBL5724914, “Linking interpersonal differences in gut microbiota composition and drug biotransformation activity” (2024).

Data set [1] can be described thus: The drug is tested on Z-004 corresponding to metagenome with ENA study accession number: PRJEB37062 and ENA sample accession number: ERS12561804 for biotransformation under anaerobic condition. The drug concentrations were measured over 9 timepoints collected between 0 and 24 hours of incubation by liquid-chromatography-coupled mass spectrometry (LC–MS). The settings on record: 2 µM.

Data set [2] can be described thus: The drug is tested on Z-013 corresponding to rabbit gut metagenome with ENA study accession number: PRJEB37062 and ENA sample accession number: ERS12561813 for biotransformation under anaerobic condition. The drug concentrations were measured over 9 timepoints collected between 0 and 24 hours of incubation by liquid-chromatography-coupled mass spectrometry (LC–MS). The conditions noted are these: 2 µM.

The conditions of data set [3]: human gut metagenome, 24 h, 2 µM.
Data set [4] is described as follows: The drug is tested on WLS-052 corresponding to human gut metagenome with ENA study accession number: PRJEB37062 and ENA sample accession number: ERS12561747 for biotransformation under anaerobic condition. The drug concentrations were measured over 9 timepoints collected between 0 and 24 hours of incubation by liquid-chromatography-coupled mass spectrometry (LC–MS). The conditions noted are these: 2 µM.

The conditions of data set [5]: human gut metagenome, 24 h, 2 µM. The source holds these as a separate data set.
For data set [6] the following is noted: human gut metagenome, 24 h, 2 µM. The source holds these as a separate data set.
Data set [7] in a line: The drug is tested on Z-025 corresponding to rabbit gut metagenome with ENA study accession number: PRJEB37062 and ENA sample accession number: ERS12561824 for biotransformation under anaerobic condition. The drug concentrations were measured over 9 timepoints collected between 0 and 24 hours of incubation by liquid-chromatography-coupled mass spectrometry (LC–MS). The settings on record: 2 µM.

Data set [8] can be described thus: The drug is tested on Z-011 corresponding to mouse gut metagenome with ENA study accession number: PRJEB37062 and ENA sample accession number: ERS12561811 for biotransformation under anaerobic condition. The drug concentrations were measured over 9 timepoints collected between 0 and 24 hours of incubation by liquid-chromatography-coupled mass spectrometry (LC–MS). The conditions noted are these: 2 µM.

Data set [9] is described as follows: The drug is tested on Z-024 corresponding to pig gut metagenome with ENA study accession number: PRJEB37062 and ENA sample accession number: ERS12561823 for biotransformation under anaerobic condition. The drug concentrations were measured over 9 timepoints collected between 0 and 24 hours of incubation by liquid-chromatography-coupled mass spectrometry (LC–MS). The conditions noted are these: 2 µM.

Structures are written as SMILES.
Further: call rule not given here.

For `CCCC1O[C@@H]2C[C@H]3[C@@H]4CCC5=CC(=O)C=C[C@]5(C)[C@H]4[C@@H](O)C[C@]3(C)[C@]2(C(=O)CO)O1` (stereo partly specified) [BUDESONIDE], the “Bacterial Biotransformation” value in data set [1] was “Compound NOT metabolized”; in data set [2] it was “Compound metabolized”; in data set [3] it was “Compound metabolized”; in [4], “Compound metabolized”; in [5], “Compound metabolized”; in [6], “Compound metabolized”. For the same compound, the entries for the “Bacterial Biotransformation” value in [7], in [8] and in data set [9] were “Compound NOT metabolized”, “Compound metabolized” and “Compound metabolized”, respectively.

For the compound `O=C(NCc1ccccc1)OCCO` [BURAMATE], the “Bacterial Biotransformation” value in data set [1], in data set [2], in data set [3], in data set [4], in data set [5] and in [6] was “Compound NOT metabolized” each time. Also, the “Bacterial Biotransformation” value in data set [7], in [8] and in data set [9] was “Compound NOT metabolized” each time.

For `CCN(CC)CCOCCOC(=O)C1(c2ccccc2)CCCC1.O=C(O)CC(O)(CC(=O)O)C(=O)O` [CARBETAPENTANE CITRATE], the “Bacterial Biotransformation” value in data set [1] is recorded as “Compound metabolized”; in data set [2], “Compound NOT metabolized”; in data set [3] it was “Compound metabolized”; in data set [4], “Compound metabolized”; in data set [5] it was “Compound NOT metabolized”; in [6] it was “Compound metabolized”. Moreover, the “Bacterial Biotransformation” value in [7] is “Compound NOT metabolized”; in data set [8], “Compound NOT metabolized”; in data set [9], “Compound metabolized”.

Regarding `O=C(O)COCCN1CCN(C(c2ccccc2)c2ccc(Cl)cc2)CC1` (stereo unspecified) [CETIRIZINE], the “Bacterial Biotransformation” value in [1] is given as “Compound metabolized”; in data set [2], “Compound NOT metabolized”; in [3] it was “Compound metabolized”; in data set [4], “Compound metabolized”; in [5], “Compound metabolized”; in data set [6], “Compound metabolized”. Further, the “Bacterial Biotransformation” value in [7] is reported as “Compound NOT metabolized”; in data set [8], “Compound NOT metabolized”; in data set [9] it was “Compound metabolized”.

Take `CN/C(=N/CCSCc1nc[nH]c1C)NC#N` [CIMETIDINE]: the “Bacterial Biotransformation” value in [1] is given as “Compound NOT metabolized”; in data set [2], “Compound NOT metabolized”; in data set [3], “Compound metabolized”; in data set [4], “Compound NOT metabolized”; in [5] it was “Compound NOT metabolized”; in data set [6] it was “Compound metabolized”. In addition, the “Bacterial Biotransformation” value in [7], in data set [8] and in [9] was “Compound NOT metabolized” throughout.

As for `Br.CN(C)CCCC1(c2ccc(F)cc2)OCc2cc(C#N)ccc21` (stereo unspecified) [CITALOPRAM HYDROBROMIDE], the “Bacterial Biotransformation” value in data set [1] is listed as “Compound NOT metabolized”; in data set [2] it was “Compound NOT metabolized”; in data set [3], “Compound metabolized”; in data set [4], “Compound NOT metabolized”; in data set [5], “Compound NOT metabolized”; in [6], “Compound NOT metabolized”. Besides, the “Bacterial Biotransformation” value was “Compound NOT metabolized” in [7], “Compound metabolized” in [8] and “Compound NOT metabolized” in data set [9].

Consider `CN(C)CCC=C1c2ccccc2C=Cc2ccccc21` [CYCLOBENZAPRINE], for which the “Bacterial Biotransformation” value in data set [1] is recorded as “Compound metabolized”; in data set [2], “Compound NOT metabolized”; in data set [3], “Compound metabolized”; in data set [4], “Compound metabolized”; in data set [5], “Compound metabolized”; in [6], “Compound metabolized”. Further, the “Bacterial Biotransformation” value in data set [7] is recorded as “Compound metabolized”; in data set [8], “Compound NOT metabolized”; in data set [9] it was “Compound metabolized”.

For the compound `C[C@@H]1C[C@H]2[C@@H]3CCC4=CC(=O)C=C[C@]4(C)[C@@]3(F)[C@@H](O)C[C@]2(C)[C@@]1(O)C(=O)CO` [DEXAMETHASONE], the “Bacterial Biotransformation” value in data set [1] is on record as “Compound metabolized”; in data set [2], “Compound NOT metabolized”; in data set [3], “Compound NOT metabolized”; in [4], “Compound NOT metabolized”; in [5] it was “Compound NOT metabolized”; in [6], “Compound NOT metabolized”. Moreover, the “Bacterial Biotransformation” value in data set [7] is listed as “Compound NOT metabolized”; in data set [8] it was “Compound NOT metabolized”; in [9], “Compound metabolized”.

Consider `O=C(Nc1ccccc1)OCC(CN1CCCCC1)OC(=O)Nc1ccccc1` (stereo unspecified) [DIPERODON], for which the “Bacterial Biotransformation” value in [1] is listed as “Compound metabolized”; in [2] it was “Compound NOT metabolized”; in data set [3], “Compound NOT metabolized”; in [4], “Compound NOT metabolized”; in data set [5], “Compound NOT metabolized”; in data set [6], “Compound NOT metabolized”. The entries for the “Bacterial Biotransformation” value in data set [7], in [8] and in data set [9] were “Compound metabolized”, “Compound NOT metabolized” and “Compound metabolized”, respectively.

As for `CC(C)N(CCC(C(N)=O)(c1ccccc1)c1ccccn1)C(C)C.O=P(O)(O)O` (stereo unspecified) [DISOPYRAMIDE PHOSPHATE], the “Bacterial Biotransformation” value in data set [1], in [2], in data set [3], in data set [4], in data set [5] and in data set [6] was “Compound NOT metabolized” each time. Besides, the “Bacterial Biotransformation” value in [7], in data set [8] and in [9] was “Compound NOT metabolized” in each case.

Turning to `C[C@@H](CO)NC(=O)[C@@H]1C=C2c3cccc4[nH]cc(c34)C[C@H]2N(C)C1.O=C(O)/C=C\C(=O)O` [ERGONOVINE MALEATE], the “Bacterial Biotransformation” value in data set [1] is “Compound NOT metabolized”; in [2], “Compound NOT metabolized”; in data set [3] it was “Compound metabolized”; in [4], “Compound metabolized”; in data set [5] it was “Compound metabolized”; in data set [6] it was “Compound metabolized”. Also, the “Bacterial Biotransformation” value in data set [7], in [8] and in data set [9] was “Compound NOT metabolized” each time.

In the case of `CCN(CC)C(C)CN1c2ccccc2Sc2ccccc21` (stereo unspecified) [ETHOPROPAZINE], the “Bacterial Biotransformation” value in data set [1] was “Compound metabolized”; in data set [2], “Compound NOT metabolized”; in data set [3] it was “Compound metabolized”; in data set [4] it was “Compound metabolized”; in [5], “Compound metabolized”; in data set [6], “Compound metabolized”. Moreover, the “Bacterial Biotransformation” value in data set [7] is recorded as “Compound NOT metabolized”; in data set [8], “Compound NOT metabolized”; in data set [9], “Compound metabolized”.

Take `Cc1nc(-c2ccc(OCC(C)C)c(C#N)c2)sc1C(=O)O` [FEBUXOSTAT]: the “Bacterial Biotransformation” value in data set [1] is “Compound NOT metabolized”; in [2], “Compound NOT metabolized”; in data set [3], “Compound metabolized”; in data set [4] it was “Compound metabolized”; in data set [5] it was “Compound NOT metabolized”; in [6], “Compound metabolized”. Also, the “Bacterial Biotransformation” value in data set [7] is “Compound NOT metabolized”; in data set [8], “Compound NOT metabolized”; in data set [9], “Compound metabolized”.

Turning to `CC(C)(C(=O)O)c1ccc(C(O)CCCN2CCC(C(O)(c3ccccc3)c3ccccc3)CC2)cc1` (stereo unspecified) [FEXOFENADINE], the “Bacterial Biotransformation” value in data set [1], in data set [2], in [3], in [4], in [5] and in data set [6] was “Compound NOT metabolized” each time. For the same compound, the “Bacterial Biotransformation” value in [7] was “Compound NOT metabolized”; in data set [8], “Compound NOT metabolized”; in data set [9], “Compound metabolized”.
